The subject of one assay is S. abortus LPS. Description: Limulus ELISA, ENC50 against S. abortus LPS. It is filed as biochemical, Salmonella abortus equi. The following applies: endotoxin 200 EU/ml; mean +/− SD. As to the method:
(§1) The peptide-mediated inhibition of endotoxin-induced Limulus amebocyte lysate (LAL) coagulation was measured with a sensitive LAL assay (Zhang et al., J. Clin. Microbiol. 32: 416-422 (1994)). Limulus ELISA is an endotoxin assay based on activation of the LAL coagulation by endotoxin and detection of the generated peptide-C immunoreactivity with an ELISA using a monoclonal antibody to the polypeptide. Endotoxin was defined to be neutralized when it lost its ability to activate the LAL enzymes. The 50% endotoxin-neutralizing concentration (ENC50) reflects the potency of an anti-endotoxin agent; a low ENC50 indicates high potency. Table 2 lists the determined ENC50 value of each anti-endotoxin agent against lipid A and four different types of LPS. The potency of each anti-endotoxin agent varied depending on the type of endotoxin. […] The only difference between the sequence of LF-33 and LF-27 is that LF-27 lacks the first six residues (GRRRRS) at the N-terminus of LF-33. Remarkably, this deletion led to dramatic loss of the endotoxin-neutralizing capacity of the polypeptide in this assay. Binding of serum proteins to endotoxin neutralizes the endotoxin activity in this assay by preventing endotoxin from activating LAL (Emancipator et al., Infect. Immun. 60: 596-601 (1992)).
(§2) LPS. […] LPS (purity >99%) from Neisseria meningitidis was prepared from the group B strain #6275 and its potency was 25 EU/ng. […] The potency of the above endotoxin was determined with the Limulus enzyme-linked immunosorbent assay (ELISA, 43) in comparison with US Pharmacopeia reference standard endotoxin EC-5.
(§3) Briefly, 25 μl endotoxin solution (200 EU/ml) was mixed with an equal volume of test materials in a series of two-fold dilution in 0.15 M NaCl in a sterile 96-well tissue culture plate (Nunc A/S, Roskilde, Denmark), and incubated at 37° C. for 1 h in a dry-air incubator. […] The endotoxin activity was then quantified with the use of Limulus ELISA (Zhang et al., J. Clin. Microbiol. 32: 416-422 (1994)). […] The high sensitivity of the assay allowed for very low levels of the endotoxin activity to be detected. […]

The test system of another assay is Lipid A. The experiment in a line: Limulus ELISA, ENC50 against Lipid A. It is filed as biochemical, E. coli K12. As to the method: as §1, §2, §3
The next assay relates to E. coli LPS. The experiment in a line: Limulus ELISA, ENC50 against E. coli LPS. It is filed as biochemical, Escherichia coli O113:H10. On the procedure:
as §1, §2, §3

Where [1] appears, read: endotoxin 200 EU/ml, mean +/− SD.

With `CSCC[C@H](NC(=O)[C@H](CC(N)=O)NC(=O)[C@H](CCCNC(=N)N)NC(=O)[C@H](CCC(N)=O)NC(=O)[C@H](Cc1c[nH]c2ccccc12)NC(=O)[C@H](CCC(N)=O)NC(=O)[C@H](Cc1ccccc1)NC(=O)[C@H](CS)NC(=O)[C@H](CCCCN)NC(=O)[C@@H](NC(=O)[C@H](C)NC(=O)[C@H](CCC(=O)O)NC(=O)[C@@H]1CCCN1C(=O)[C@H](CCC(N)=O)NC(=O)[C@H](CO)NC(=O)[C@@H](NC(=O)[C@H](C)NC(=O)[C@H](CS)NC(=O)[C@H](Cc1c[nH]c2ccccc12)NC(=O)[C@H](CCC(N)=O)NC(=O)[C@@H](N)C(C)C)C(C)C)[C@@H](C)O)C(=O)N[C@@H](CCCNC(=N)N)C(=O)N[C@@H](CCCCN)C(=O)N[C@H](C(=O)N[C@@H](CCCNC(=N)N)C(=O)NCC(=O)N1CCC[C@H]1C(=O)O)C(C)C` [LF-27], the “ENC50 against S. abortus LPS” value in the assay on S. abortus LPS was “no detectable activity”. Moreover, the IC50 was more than 300 µM in the assay with S. abortus LPS, 0.63 µM in the assay with Lipid A (setting [1]) and 7.45 µM with E. coli LPS (setting [1]). In addition, in the assay on Lipid A, the “fold less potent than LF-33 at neutralizing lipid A” value was “approximately 10 fold”. Moreover, the “fold less potent than LF-33 at neutralizing E. coli LPS” value in the assay with E. coli LPS is “approximately 10 fold”.

These data come from patent publication US6399570B1, “Antimicrobial/endotoxin neutralizing polypeptide” (priority 1999, dated 2002).
